Tests used:
human MRGPRX2 = molecular target: T1, human MRGPRX2 (Homo sapiens, UniProt Q96LB1); experiment: MRGPRX2 activity: IP-One HTRF antagonist assay versus 0.3 uM Cortistatin 14; format: cell-based; conditions: CHO cells expressing human MRGPRX2; IP-1 HTRF; versus 0.3 uM Cortistatin 14 agonist; read-out: MRGPR2 Antagonist Activity
T1 construct: expressed in transfected cells
T1 sequence (Q96LB1 1-330): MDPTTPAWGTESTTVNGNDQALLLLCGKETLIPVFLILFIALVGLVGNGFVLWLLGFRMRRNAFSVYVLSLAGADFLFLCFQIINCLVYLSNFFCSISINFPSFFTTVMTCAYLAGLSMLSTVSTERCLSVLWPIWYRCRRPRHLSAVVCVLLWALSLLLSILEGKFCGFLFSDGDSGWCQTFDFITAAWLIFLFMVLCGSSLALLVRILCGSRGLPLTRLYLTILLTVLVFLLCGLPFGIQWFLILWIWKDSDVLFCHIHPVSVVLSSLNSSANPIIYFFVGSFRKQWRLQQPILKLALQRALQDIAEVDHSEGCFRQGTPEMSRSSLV
Method: CHO cells stably transfected to express human MRGPRX2 were maintained in an incubator at 37° C. with 5% CO2 and grown in F12 (HAM) media with 10% fetal bovine serum (FBS), 1% Glutamax, 1% penicillin/streptomycin, 800 μg/mL Geneticin (G418), and 300 μg/mL Hygromycin B.
Cells were plated in a […] assay plate at 20,000 cells per well in 12 μL of Opti-MEM and kept in an incubator overnight. On the day of the assay, compounds solubilized at 10 mM in DMSO were added as a 10-point curve (30 uM final top concentration with 1:3 serial dilutions) using a Tecan D300E digital dispenser. Agonists were diluted in assay buffer (final concentrations of 5.7 mM Tris-HCl, 43 mM NaCl, 50 mM LiCl, pH=8) and 2 μL of the agonist Cortistatin 14 (CPC Scientific, catalog CORT-002) are added to each well. Final concentrations of agonists were 0.3 μM Cortistatin. Final concentrations of DMSO were kept consistent across the plate. Plates were incubated in the dark for 1 h at 37° C. and then for 1 h at room temperature. IP-1 standards and HTRF detection reagents were added according to the IP-One-Gq Kit purchased from Cisbio (part number 62IPAPEJ) and incubated in the dark for 1 h at room temperature. The plate was read on a Molecular Devices SpectraMax iD5 plate reader. The HTRF ratio was calculated from the raw data and graphed using GraphPad Prism to calculate an IC50 value for each compound.
(§1) The activity ranges are denoted as follows: “+++++” denotes antagonist activity <100 nM; “++++” denotes antagonist activity between 100 and 500 nM; “+++” denotes activity between 501 and 1000 nM; “++” denotes activity between 1001 and 2500 nM; and “+” denotes activity >2500 nM

Human LAD2 cells = experiment: Mast Cell Beta-Hexosaminidase Release Assay (versus 500 nM Cortistatin-14); format: cell-based; conditions: 500 nM Cortistatin-14 agonist, read-out: MRGPR2 Antagonist Activity
Method: Human LAD2 cells (NIH) were maintained in an incubator at 37° C. with 5% CO2 and cultured in StemPro-34 serum-free media (Gibco 10639011) supplemented with 2 mM L-glutamine, 100 U/ml penicillin, […] streptomycin and 100 ng/ml SCF (Invitrogen PEP0860), at a concentration of 2-5×10^5 cells/mL, with hemidepletion every 1-2 weeks.
Cells were transferred to SCF-Free medium at 2.5×10^5 cells/mL and kept in an incubator overnight. On the day of the assay, cells were washed twice in Assay Buffer (final concentrations 10 mM HEPES, 137 mM NaCl, 5.6 mM D-glucose, 2.7 mM KCl, 1 mM MgCl, 1.8 mM CaCl2, 0.4 mM Na2HPO4.7H2O, 0.04% BSA, pH=7.4) and plated in a 96-well v-bottom plate at 20,000 cells per well in 80 μL Assay Buffer. Antagonist compounds solubilized at 10 mM in DMSO were diluted in Assay Buffer to 10× final desired concentrations as a 10-point curve (10 μM final top concentration with 1:3 serial dilutions) and 10 μL added per well. Plates were then incubated for 1 hour at 37° C. Agonists were diluted in Assay Buffer to 10× desired concentrations and 10 μL of the appropriate agonist added to each well. The final concentration of Cortistatin-14 (Tocris 3374) used in antagonist assays was 500 nM. Final concentrations of DMSO were kept consistent across the plate. Plates were then incubated in a warm air oven for 30 minutes at 37° C., followed by centrifugation at 4° C. for 5 minutes at 450×g. 50 μL supernatant from each well was then transferred to a 96-well flat bottom plate containing 100 μL substrate solution per well (3.5 mg/mL p-Nitrophenyl-N-acetyl-β-D-glucosaminide (Sigma 487052) in Citrate Buffer containing a final concentration of 40 mM Citric Acid, 20 mM Na2HPO4.7H2O, pH=4.5). To the cell pellets left in the remaining assay buffer, 150 μL 0.1% Triton-X-100 was then added to each well, resuspended by pipetting up and down, and 50 μL cell lysates transferred to a second 96-well flat bottom plate containing 100 μL substrate solution per well. Plates containing transferred supernatant and cell lysates were then incubated in a warm air oven for 90 minutes at 37° C. After incubation, 50 μL of 400 mM Glycine buffer (pH 10.7) was added into each well and the plate was read on a Molecular Devices SpectraMax iD5 plate reader (absorbance at 405 nm with reference filter at 620 nm). After background subtraction, the percentage degranulation (percent beta-hexosaminidase release) was calculated as 100×(supernatant values)/(supernatant+lysate values), followed by analysis using GraphPad Prism software to calculate an IC50 value for each compound.
as §1

Row | Compound | IC50 (human MRGPRX2) | IC50 (Human LAD2 cells)
1 | CN(C)C(=O)Nc1cccc(C(=O)N[C@H]2CC[C@@H](Nc3cc(C(F)(F)F)nc4ccc(Cl)cc34)CC2)c1 [4-281] | 100 to 500 nM | 
2 | N#Cc1csc(C(=O)N[C@H]2CC[C@@H](Nc3cc(C(F)(F)F)nc4ccccc34)CC2)c1 [4-243] | 501 to 1000 nM | 
3 | O=C(N[C@H]1CC[C@@H](Nc2cc(C(F)(F)F)nc3ccc(Cl)cc23)CC1)c1n[nH]c2c1COCC2 [4-60] | 501 to 1000 nM | 
4 | O=C(N[C@H]1CC[C@@H](Nc2cc(C(F)(F)F)nc3ccccc23)CC1)[C@H]1C[C@@H]1c1ccccc1 [4-291] | 1000 to 2500 nM | 
5 | N#Cc1cccc(C(=O)N[C@H]2CC[C@@H](Nc3nc(C(F)(F)F)nc4ccccc34)CC2)c1 [4-288] |  | 501 to 1000 nM
6 | O=C(N[C@H]1CC[C@@H](Nc2cc(C(F)(F)F)nc3ccc(Cl)cc23)CC1)C1CCN(C(=O)c2ccccc2Cl)CC1 [4-122] | > 2500 nM | 
7 | O=C(N[C@H]1CC[C@@H](Nc2cc(C(F)(F)F)nc3ccccc23)CC1)c1ccccc1Cl [3-12] | 100 to 500 nM | 
8 | COc1ccc(C(=O)N[C@H]2CC[C@@H](Nc3cc(C(F)(F)F)nc4ccccc34)CC2)cc1F [3-27] | 501 to 1000 nM | 
9 | CC(=O)Nc1ccc(C(=O)N[C@H]2CC[C@@H](Nc3cc(C(F)(F)F)nc4ccc(Cl)cc34)CC2)cc1 [4-103] | < 100 nM | 
10 | CCC(C(=O)N[C@H]1CC[C@@H](Nc2cc(C(F)(F)F)nc3ccccc23)CC1)c1ccccc1 (some centres unmarked) [3-24] | 1000 to 2500 nM | 
11 | CC(C)Cc1cc(C(=O)N[C@H]2CC[C@@H](Nc3cc(C(F)(F)F)nc4ccc(Cl)cc34)CC2)n(C)n1 [4-129] | 1000 to 2500 nM | 
12 | COc1ccc(C(=O)N[C@H]2CC[C@@H](Nc3cc(C(F)(F)F)nc4ccccc34)CC2)cc1N(C)C [4-258] | 501 to 1000 nM | 
13 | O=C(N[C@H]1CC[C@@H](Nc2cc(C(F)(F)F)nc3ccc(Cl)cc23)CC1)c1ccc2oc(=O)ccc2c1 [4-145] | 100 to 500 nM | 
14 | O=C(N[C@H]1CC[C@@H](Nc2cc(C(F)(F)F)nc3ccc(Cl)cc23)CC1)c1ccc2[nH]c(-c3ccncc3)nc2c1 [4-23] | < 100 nM | 
15 | CN(C)c1ccc(C(=O)N[C@H]2CC[C@@H](Nc3cc(C(F)(F)F)nc4ccc(Cl)cc34)CC2)cc1 [4-102] | 100 to 500 nM | 
16 | O=C(N[C@H]1CC[C@@H](Nc2cc(C(F)(F)F)nc3ccccc23)CC1)c1cc(Cl)cs1 [4-251] | 501 to 1000 nM | 
17 | CNC(=O)Nc1cccc(C(=O)N[C@H]2CC[C@@H](Nc3cc(C(F)(F)F)nc4ccc(Cl)cc34)CC2)c1 [Example 5A] | < 100 nM | 
18 | CCCS(=O)(=O)Nc1ccc(F)c(C(=O)N[C@H]2CC[C@@H](Nc3cc(C(F)(F)F)nc4ccc(Cl)cc34)CC2)c1F [4-173] | 100 to 500 nM | 
19 | O=C(CCOc1cccc(F)c1)N[C@H]1CC[C@@H](Nc2cc(C(F)(F)F)nc3ccc(Cl)cc23)CC1 [4-134] | > 2500 nM | 
20 | O=C(N[C@H]1CC[C@@H](Nc2cc(C(F)(F)F)nc3ccccc23)CC1)c1ccc2ncccc2n1 [4-265] | 1000 to 2500 nM | 

Further lines, results first:

Row | IC50 (human MRGPRX2) | IC50 (Human LAD2 cells) | Compound
21 | 100 to 500 nM |  | CCNc1cccc(C(=O)N[C@H]2CC[C@@H](Nc3cc(C(F)(F)F)nc4ccc(Cl)cc34)CC2)c1 [4-282]
22 | 100 to 500 nM |  | O=C(N[C@H]1CC[C@@H](Nc2cc(C(F)(F)F)nc3ccccc23)CC1)c1coc2ccccc12 [4-272]
23 | 100 to 500 nM |  | CNc1cccc(C(=O)N[C@H]2CC[C@@H](Nc3cc(C(F)(F)F)nc4ccc(Cl)cc34)CC2)c1 [4-8]
24 | 501 to 1000 nM |  | O=C(N[C@H]1CC[C@@H](Nc2cc(C(F)(F)F)nc3ccc(Cl)cc23)CC1)c1csnn1 [4-107]
25 | 501 to 1000 nM |  | COc1ccc(C(=O)N[C@H]2CC[C@@H](Nc3cc(C(F)(F)F)nc4ccc(Cl)cc34)CC2)c(C)n1 [4-6]
26 | 1000 to 2500 nM |  | Cc1cc(C(F)(F)F)nn1CC(=O)N[C@H]1CC[C@@H](Nc2cc(C(F)(F)F)nc3ccc(Cl)cc23)CC1 [4-141]
27 | 1000 to 2500 nM |  | CC1C(C(=O)N[C@H]2CC[C@@H](Nc3cc(C(F)(F)F)nc4ccc(Cl)cc34)CC2)CC2CC1C2(C)C (some centres unmarked) [4-200]
28 | 100 to 500 nM |  | CS(=O)(=O)c1ccc(C(=O)N[C@H]2CC[C@@H](Nc3cc(C(F)(F)F)nc4ccc(Cl)cc34)CC2)c(Cl)c1 [4-123]
29 | 501 to 1000 nM |  | O=C(N[C@H]1CC[C@@H](Nc2cc(C(F)(F)F)nc3ccccc23)CC1)c1cccs1 [3-36]
30 | 501 to 1000 nM |  | O=C(N[C@H]1CC[C@@H](Nc2cc(C(F)(F)F)nc3ccccc23)CC1)c1ccccn1 [3-21]
31 | 501 to 1000 nM |  | O=C(N[C@H]1CC[C@@H](Nc2cc(C(F)(F)F)nc3ccccc23)CC1)c1ccc(Cl)s1 [4-241]
32 |  | 501 to 1000 nM | O=C(N[C@H]1CC[C@@H](Nc2nc(C(F)(F)F)nc3ccccc23)CC1)c1ccc(F)cc1 [1-7, 4-fluoro-N-[(1s,4s)-4-{[2-(trifluoromethyl)quinazolin-4-yl]amino}cyclohexyl]benzamide]
33 | 1000 to 2500 nM |  | CCCc1nnsc1C(=O)N[C@H]1CC[C@@H](Nc2cc(C(F)(F)F)nc3ccc(Cl)cc23)CC1 [4-209]
34 | 1000 to 2500 nM |  | O=C(N[C@H]1CC[C@@H](Nc2cc(C(F)(F)F)nc3ccc(Cl)cc23)CC1)c1cccn1-c1ccccc1 [4-162]
35 | 100 to 500 nM |  | CC(C)C(=O)Nc1cccc(C(=O)N[C@H]2CC[C@@H](Nc3cc(C(F)(F)F)nc4ccc(Cl)cc34)CC2)c1 [4-279]
36 |  | 100 to 500 nM | O=C(N[C@H]1CC[C@@H](Nc2cc(C(F)(F)F)nc3ccc(Cl)cc23)CC1)c1ccc(F)cc1 [1-5, 4-fluoro-N-[(1s,4s)-4-{[6-chloro-2-(trifluoromethyl)quinolin-4-yl]amino}cyclohexyl]benzamide]
37 | 1000 to 2500 nM |  | O=C(N[C@H]1CC[C@@H](Nc2cc(C(F)(F)F)nc3ccccc23)CC1)c1ccnc2ccccc12 [4-230]
38 | 100 to 500 nM |  | O=C(N[C@H]1CC[C@@H](Nc2cc(C(F)(F)F)nc3ccccc23)CC1)c1cccc(F)c1 [3-42]
39 | 501 to 1000 nM |  | Cn1cc(I)c(C(=O)N[C@H]2CC[C@@H](Nc3cc(C(F)(F)F)nc4ccc(Cl)cc34)CC2)n1 [4-90]
40 | 100 to 500 nM |  | O=C1Nc2c(C(=O)N[C@H]3CC[C@@H](Nc4cc(C(F)(F)F)nc5ccc(Cl)cc45)CC3)cccc2C1=O [4-164]
41 | 100 to 500 nM |  | O=C1CCc2ccc(C(=O)N[C@H]3CC[C@@H](Nc4cc(C(F)(F)F)nc5ccc(Cl)cc45)CC3)cc2N1 [4-283]
42 | 1000 to 2500 nM |  | N#Cc1ccc(C(=O)N[C@H]2CC[C@@H](Nc3cc(C(F)(F)F)nc4ccccc34)CC2)s1 [4-242]
43 | 100 to 500 nM |  | O=C(N[C@H]1CC[C@@H](Nc2cc(C(F)F)nc3ccc(Cl)cc23)CC1)c1ccc(F)cc1 [1-3, 4-fluoro-N-[(1s,4s)-4-{[6-chloro-2-(difluoromethyl)quinolin-4-yl]amino}cyclohexyl]benzamide]
44 | 501 to 1000 nM |  | O=C(N[C@H]1CC[C@@H](Nc2cc(C(F)(F)F)nc3ccc(Cl)cc23)CC1)c1ccc2nc(Cl)sc2c1 [4-57]
